This note sets out measurements from patent US8507472B2 (priority 2010, dated 2013).

For orientation: chromatographic logP means lipophilicity estimated from chromatographic retention. High values mean a more lipophilic compound, low ones a more hydrophilic compound.

The first data set relates to Pyrenophora teres. Description: Pyrenophora teres test (barley)/protective. The settings on record: in vivo. The data set is classed as in vivo. How it is done:
Solvent: 49 parts by weight of N,N-dimethylformamide
Emulsifier: 1 part by weight of alkylaryl polyglycol ether
To produce a suitable preparation of active compounds, 1 part by weight of active compound is mixed with the stated amounts of solvent and emulsifier, and the concentrate is diluted with water to the desired concentration.
To test for protective activity, young barley plants are sprayed with the active compound preparation at the stated application rate. 1 day after the treatment, the plants are inoculated with an aqueous spore suspension of Pyrenophora teres and then remain at 100% rel. atmospheric humidity and 22° C. for 48 h. The plants are then placed in a greenhouse at 80% rel. atmospheric humidity and a temperature of 20° C.
Evaluation is carried out 7-9 days after the inoculation. 0% means an efficacy which corresponds to that of the control, whereas an efficacy of 100% means that no infection is observed.
Molecule `CC(C)CC(=O)Nc1cc(-c2c(-c3ccc(F)cc3)nn3c2CCOC3(C)C)ccn1` [Example 105] registered an efficacy in % of 95%.

In the case of `Nc1cc(-c2c(-c3ccc(F)cc3)nn3c2CCOC3)ccn1` [Example 103], the efficacy in % was 90%.

`CC(C)CNc1cc(-c2c(-c3ccccc3)nn3c2CCC3)ccn1` [Example 72] gave an efficacy in % of 80%.

`CC(C)CNc1cc(-c2c(-c3cccc(F)c3)nn3c2CCC3)ccn1` [Example 73] displayed an efficacy in % of 70%.

System in the next data set: not listed separately
Description: log P determination by HPLC retention times (alkan-2-one calibration). The settings on record: HCOOH; preparation examples in the text.
`CC(Cl)CCC(=O)NN=C(c1ccccc1)c1ccccc1` (stereo not drawn) [XXV-1, 4-Chloro-N′-(diphenylmethylene)pentane hydrazide]: the “log P(HCOOH)” value stood at 3.76.

The data set is the same for the next values; noted with them: log P(HCOOH), HCOOH; preparation examples in the text.
Regarding `Clc1ccc(-c2cc3n(n2)CCC3)cc1` [VII-4, 2-(4-Chlorophenyl)-5,6-dihydro-4H-pyrrolo[1,2-b]pyrazole], the chromatographic logP turned out to be 2.86.

`COc1ccc(-c2cc3n(n2)CCC3)cc1` [VII-7, 2-[4-(Methoxy)phenyl]-5,6-dihydro-4H-pyrrolo[1,2-b]pyrazole]: the chromatographic logP is 2.17.

Molecule `ClCc1cc(-c2ccccc2)n[nH]1` [XV-1, 5-(Chloromethyl)-3-phenyl-1H-pyrazole] gave a chromatographic logP of 2.05. The chromatographic logP values of the last two molecules are within 0.2 log units of each other.

Consider `CCOC(=O)c1c(-c2ccccc2F)nn2c1CCC2` [XXX-3, Ethyl 2-(2-fluorophenyl)-5,6-dihydro-4H-pyrrolo[1,2-b]pyrazole-3-carboxylate], for which the chromatographic logP was determined as 2.49.

As for `Fc1ccc(-c2nn3c(c2I)CCCC3)cc1` [VIII-1, 2-(4-Fluorophenyl)-3-iodo-4,5,6,7-tetrahydropyrazolo[1,5-a]pyridine], the chromatographic logP amounted to 3.79.

In turn, `CC1CCn2nc(-c3ccc(F)cc3)c(C(=O)O)c21` (stereo not drawn) [XXXI-2, 2-(4-Fluorophenyl)-4-methyl-5,6-dihydro-4H-pyrrolo[1,2-b]pyrazole-3-carboxylic acid] yielded a chromatographic logP of 1.84.

Molecule `CCOC(=O)CC(=NN1C(=O)CCC1C)c1ccccc1F` (stereo not drawn) [XXVIII-3, Ethyl 3-(2-fluorophenyl)-3-[(2-methyl-5-oxopyrrolidin-1-yl)imino]propanoate] yielded a chromatographic logP of 2.34.

The molecule `Ic1c(-c2cccs2)nn2c1CCCC2` [VIII-13, 2-(2-Thienyl)-3-iodo-4,5,6,7-tetrahydropyrazolo[1,5-a]pyridine] returned a chromatographic logP of 3.45.

`Ic1c(-c2ccccc2)nn2c1CCC2` [VIII-5, 2-(Phenyl)-3-iodo-5,6-dihydro-4H-pyrrolo[1,2-b]pyrazole] showed a chromatographic logP of 3.09.

As for `Fc1ccc(-c2nn3c(c2Br)COCC3)cc1` [VIII-17, 3-Bromo-2-(4-fluorophenyl)-6,7-dihydro-4H-pyrazolo[5,1-c][1,4]oxazine], the chromatographic logP turned out to be 2.9.

Regarding `Fc1ccc(-c2cc(CCOCc3ccccc3)[nH]n2)cc1` [XXI, 5-[2-(Benzyloxy)ethyl]-3-(4-fluorophenyl)-1H-pyrazole], the chromatographic logP was determined as 3.09.

In the case of `[O-]c1on[n+]2c1CCCC2` [III-2, 4,5,6,7-Tetrahydro[1,2,3]oxadiazolo[3,4-a]pyridin-8-ium 3-olate], the chromatographic logP was 0.59.

Regarding `CC1CCc2c(I)c(-c3ccc(F)cc3)nn21` (stereo not drawn) [VIII-19, 2-(4-Fluorophenyl)-3-iodo-6-methyl-5,6-dihydro-4H-pyrrolo[1,2-b]pyrazole], the chromatographic logP was 3.82.

In turn, `COc1ccc(-c2nn3c(c2I)CCC3)cc1` [VIII-9, 2-[4-(Methoxy)phenyl]-3-iodo-5,6-dihydro-4H-pyrrolo[1,2-b]pyrazole] had a chromatographic logP of 3.01.

In turn, `CC1CCc2c(Br)c(-c3ccc(F)cc3)nn21` (stereo not drawn) [VIII-20, 2-(4-Fluorophenyl)-3-bromo-6-methyl-5,6-dihydro-4H-pyrrolo[1,2-b]pyrazole] returned a chromatographic logP of 3.77.

In turn, `CC1CCn2nc(-c3ccc(F)cc3)c(I)c21` (stereo not drawn) [VIII-21, 2-(4-Fluorophenyl)-3-iodo-4-methyl-5,6-dihydro-4H-pyrrolo[1,2-b]pyrazole] came in with a chromatographic logP of 3.67.

As for `COC(=O)c1c(-c2ccc(F)cc2)nn2c1C(C)CC2` (stereo not drawn) [XXX-2, Methyl 2-(4-fluorophenyl)-4-methyl-5,6-dihydro-4H-pyrrolo[1,2-b]pyrazole-3-carboxylate], the chromatographic logP stood at 2.71.

For `Fc1cccc(-c2cc3n(n2)CCC3)c1` [VII-10, 2-[3-Fluorophenyl]-5,6-dihydro-4H-pyrrolo[1,2-b]pyrazole], the chromatographic logP was determined as 2.46.

Molecule `Fc1ccc(-c2nn3c(c2I)CCC3)cc1` [VIII-6, 2-(4-Fluorophenyl)-3-iodo-5,6-dihydro-4H-pyrrolo[1,2-b]pyrazole] returned a chromatographic logP of 3.3.

The molecule `c1cc(-c2cc3n(n2)CCCC3)cs1` [VII-12, 2-(3-Thienyl)-4,5,6,7-tetrahydropyrazolo[1,5-a]pyridine] yielded a chromatographic logP of 2.25.

On to `Clc1ccc(C#Cc2ccncc2)cc1` [II-5, 4-{[4-Chlorophenyl]ethynyl}pyridine], for which the chromatographic logP came to 2.43.

`CC1CCC(=O)N1N=C(c1ccccc1)c1ccccc1` (stereo not drawn) [XXVI-1, 1-[(Diphenylmethylene)amino]-5-methylpyrrolidin-2-one] registered a chromatographic logP of 2.73.

The molecule `Fc1ccc(-c2nn3c(c2I)CCCCC3)cc1` [VIII-2, 2-(4-Fluorophenyl)-3-iodo-5,6,7,8-tetrahydro-4H-pyrazolo[1,5-a]azepine] showed a chromatographic logP of 4.35.

As for `CC(C)(C)OC1Cc2c([O-])on[n+]2C1` (stereo not drawn) [III-4, 5-tert-Butoxy-5,6-dihydro-4H-pyrrolo[1,2-c][1,2,3]oxadiazol-7-ium 3-olate], the chromatographic logP turned out to be 1.34.

Take `Fc1ccccc1-c1nn2c(c1Br)CCC2` [VIII-22, 3-Bromo-2-(2-fluorophenyl)-5,6-dihydro-4H-pyrrolo[1,2-b]pyrazole]: the chromatographic logP came to 2.81.

With `CC1(C)OCCc2c(I)c(-c3ccc(F)cc3)nn21` [VIII-16, 2-(4-Fluorophenyl)-3-iodo-7,7-dimethyl-4,5-dihydropyrazolo[1,5-c][1,3]oxazine], the chromatographic logP amounted to 4.28.

In turn, `Ic1c(-c2ccccc2)nn2c1COCC2` [VIII-15, 3-Iodo-2-phenyl-6,7-dihydro-4H-pyrazolo[5,1-c][1,4]oxazine] displayed a chromatographic logP of 2.82.

The molecule `Ic1c(-c2ccccc2)nn2c1CCCC2` [VIII-12, 2-(Phenyl)-3-iodo-4,5,6,7-tetrahydropyrazolo[1,5-a]pyridine] showed a chromatographic logP of 3.55.

On to `CC1CCN(N=C(c2ccccc2)c2ccccc2)C1=O` (stereo not drawn) [XXV-3, 1-[(Diphenylmethylene)amino]-3-methylpyrrolidin-2-one], for which the chromatographic logP stood at 2.62.

Turning to `CCOC(=O)CC(=NN1CCCC1=O)c1ccccc1F` [XXVIII-4, Ethyl 3-(2-fluorophenyl)-3-[(2-oxopyrrolidin-1-yl)imino]propanoate], the chromatographic logP stood at 1.97.

The molecule `Clc1ccc(-c2nn3c(c2I)CCC3)cc1` [VIII-4, 2-(4-Chlorophenyl)-3-iodo-5,6-dihydro-4H-pyrrolo[1,2-b]pyrazole] came in with a chromatographic logP of 3.88.

As to `COC(=O)c1cc(-c2ccc(F)cc2)nn1CCCl` [XI-1, Methyl 1-(2-chloroethyl)-3-(4-fluorophenyl)-1H-pyrazole-5-carboxylate], the chromatographic logP came to 3.58.

The molecule `Fc1ccc(-c2nn3c(c2I)CCOC3)cc1` [VIIIa-1, 2-(4-Fluorophenyl)-3-iodo-4,5-dihydropyrazolo[1,5-c][1,3]oxazine] had a chromatographic logP of 3.23.

For `Fc1ccc(C#Cc2ccnc(Cl)c2)cc1` [II-6, 2-Chloro-4-[(4-fluorophenyl)ethynyl]pyridine], the chromatographic logP was 3.8.

Consider `Fc1cccc(-c2nn3c(c2I)CCC3)c1` [VIII-11, 2-[3-Fluorophenyl]-3-iodo-5,6-dihydro-4H-pyrrolo[1,2-b]pyrazole], for which the chromatographic logP was 3.32.

The molecule `O=C1CCCN1N=C(c1ccccc1)c1ccccc1` [XXVI-2, 1-[(Diphenylmethylene)amino]pyrrolidin-2-one] gave a chromatographic logP of 2.23.

With `[O-]c1on[n+]2c1CCCCC2` [III-1, 5,6,7,8-Tetrahydro-4H-[1,2,3]oxadiazolo[3,4-a]azepin-9-ium 3-olate], the chromatographic logP amounted to 0.6.

`c1ccc(-c2cc3n(n2)CCCC3)cc1` [VII-5, 2-(Phenyl)-4,5,6,7-tetrahydropyrazolo[1,5-a]pyridine]: the chromatographic logP stood at 2.57.

Molecule `c1ccc(-c2cc3n(n2)CCSC3)cc1` [VIIb-1, 2-Phenyl-6,7-dihydro-4H-pyrazolo[5,1-c][1,4]thiazine] had a chromatographic logP of 2.46.

Take `Ic1c(-c2ccsc2)nn2c1CCC2` [VIII-8, 2-[3-Thienyl]-3-iodo-5,6-dihydro-4H-pyrrolo[1,2-b]pyrazole]: the chromatographic logP is 2.97.

For the molecule `Cc1ccc(-c2cc3n(n2)CCC3)cc1` [VII-8, 2-[4-Methylphenyl]-5,6-dihydro-4H-pyrrolo[1,2-b]pyrazole], the chromatographic logP was determined as 2.64.

`Fc1ccc(-c2cc3n(n2)CCOC3)cc1` [VIIa-1, 2-(4-Fluorophenyl)-6,7-dihydro-4H-pyrazolo[5,1-c][1,4]oxazine] showed a chromatographic logP of 2.01.

In the case of `c1ccc(-c2cc3n(n2)CCC3)cc1` [VII-2, 2-(Phenyl)-5,6-dihydro-4H-pyrrolo[1,2-b]pyrazole], the chromatographic logP was found to be 2.19.

The same data set, now with this note: pH 7, log P(pH7), pH7; preparation examples in the text.
In turn, `FC(F)(F)c1cccc(C#Cc2ccncc2)c1` [II-2, 4-{[3-(Trifluoromethyl)phenyl]ethynyl}pyridine] had a chromatographic logP of 3.5.

`COc1ccc(C#Cc2ccncc2)cc1` [II-3, 4-{[4-(Methoxy)phenyl]ethynyl}pyridine] had a chromatographic logP of 2.68.

Turning to `Fc1ccc(C#Cc2ccncc2)cc1` [II-4, 4-{[4-Fluorophenyl]ethynyl}pyridine], the chromatographic logP turned out to be 2.81.
